Laboratory results published in paper PMC8269107, “Lipidation of Temporin-1CEb Derivatives as a Tool for Activity Improvement, Pros and Cons of the Approach” (International Journal of Molecular Sciences, 2021).
Values after ≈ are worked out from the molar mass of the structure shown. Where a SMILES comes first, the peptide text is derived from it. [ ]: non-standard residue; d: D form. The star is where a group is joined. Palmitoyl = CCCCCCCCCCCCCCCC(=O)*; AEEA = NCCOCCOCC(=O)O; Ahx = NCCCCCC(=O)O; βAla = NCCC(=O)O

How the values were obtained:
[1] = tested on: primary fibroblasts; experiment: Cytotoxicity, MTT assay; assay type: cell-based, human; conditions: 24 h; for effect on cell viability (in words): fibroblasts, 1 to 50 µg/mL
Method: (§1) Human dermal fibroblasts were obtained as previously reported from biopsies of healthy human skin of three donors undergoing a surgery. All procedures were approved by the Ethics Committee of Medicinal University of Gdansk (NKEBN/483/2011 and NKBBN/745/2019-2020). Immortalized human HaCaT keratinocytes (DKFZ Heidelberg, Germany) were obtained commercially.
(§2) Both types of cell lines were grown in Dulbecco′s Modified Eagle′s Medium (DMEM) (Sigma-Aldrich, Germany), containing […] of glucose, […] of L- glutamine, sodium pyruvate and sodium bicarbonate. Additionally, the medium was supplemented with 10% FCS (fetal calf serum, Sigma-Aldrich, Germany), 100 U/mL of penicillin and 100 μg/mL of streptomycin (Sigma-Aldrich, Germany). The cells were grown in standard culture dishes (BD, USA) in a humidified atmosphere with 5% CO2 at […], and the medium was changed every 2 days.
(§3) The fibroblasts and keratinocytes were seeded at density of 5500 cells per well into 96-well plates suspended in a medium supplemented with 10% FCS. After 24 h from seeding, the media were exchanged with serum- and antibiotic-free DMEM and tested peptides, dissolved in sterile water, which were added, yielding a final concentration ranging from 1 to 50 μg/mL. The cells were then incubated for the next 24 h. At the end of the experiment, the cells were treated with 20 μL of MTT (5 mg/mL in PBS). After 3 h of incubation in the presence of MTT dye, the DMEM medium was discarded and replaced with 6 mM HCl in isopropanol. When the purple crystals of formazan were fully solubilized, absorbance at 570 nm was read.

[2] = tested on: keratinocytes (HaCaT); experiment: Cytotoxicity, MTT assay; assay type: cell-based, human; conditions: 24 h; for effect on cell viability (in words): keratinocytes, 1 to 50 µg/mL
Method: as §1, §2, §3

[3] = tested on: E. coli PCM 2057; experiment: MIC, broth microdilution; assay type: cell-based, Escherichia coli; conditions: E. coli PCM 2057, 24 h
Text: (§4) Escherichia coli (PCM 2057 = ATCC 25922), Staphylococcus aureus (PCM 2054 = ATCC 25923), Staphylococcus epidermidis (PCM 2118 = ATCC 14990), Bacillus subtilis (PCM 2224 = ATCC 9799), Bacillus cereus (PCM 482 = ATCC 10702) and Pseudomonas aeruginosa (PCM 499 = ATCC 10145) were obtained from the Polish Collection of Microorganisms. Fungi strains Candida albicans (CCM 8186 = CNTC 49/64), Candida glabrata (CCM 8270 = ATCC 90030), Candida parapsilosis (CCM 8260 = ATCC 22019) and Candida krusei (CCM 8271 = ATCC 6258) were acquired from the Czech Collection of Microorganisms. S. aureus USA300 (wild type strain), the reference strain of Klebsiella pneumoniae (ATCC 13883) and clinical isolates of Pseudomonas aeruginosa (PA1, PA2) collected from nonrelated patients admitted to the Stefan Zeromski Specialist Municipal Hospital in Krakow (Poland) were kindly provided by the research group of the Department of Microbiology, Faculty of Biochemistry, Biophysics and Biotechnology, Jagiellonian University, Krakow, Poland.
(§5) Luria-Bertani broth (LB) and Sabouraud Dextrose broth (SB) (Biocorp, Poland) were used for cultivation of bacteria and fungi strains, respectively. The antimicrobial activity of the peptides were analyzed through determination of MIC (minimal inhibitory concentration) parameters according to Clinical and Laboratory Standards (CLSI) guidelines developed for aerobic bacteria and yeasts, respectively. Mueller-Hinton broth (MHB) was used as the working medium for all bacterial strains, while in the case of fungi, RPMI-1640 (with L-glutamine, without sodium bicarbonate) growth medium buffered with MOPS (morpholinepropanesulfonic acid) and supplemented with 2% glucose was used. Inoculum was prepared from freshly grown cultures of microorganisms at their exponential phase of growth. […] Plates were then incubated for 24 h at 37 °C in the case of bacteria and at 35 °C in the case of fungi. After that time, absorbance was read at 590 nm with a Perkin Elmer plate reader. Cultures without peptide were treated as positive control, while uninoculated media were defined as negative control. All measurements were run at least in triplicate.

[4] = tested on: B. subtilis PCM 2224; experiment: MIC, broth microdilution; assay type: cell-based, Bacillus subtilis; conditions: B. subtilis PCM 2224, 24 h
Text: as §4, §5

[5] = tested on: S. aureus PCM 2054; experiment: MIC, broth microdilution; assay type: cell-based, Staphylococcus aureus; conditions: S. aureus PCM 2054, standard Mueller-Hinton broth, 24 h
Text: as §4, §5

[6] = tested on: S. aureus (PCM 2054) biofilm; experiment: Biofilm inhibition assay (MTT); assay type: cell-based, Staphylococcus aureus; conditions: S. aureus biofilm development, 24 h post-inoculation
Method: In the case of bacteria, an overnight culture of S. aureus in Tryptic Soy Broth (TSB) supplemented with 2% glucose (TSB/+G) was used to prepare inoculum for the experiments. Briefly, 5 mL of 24 h culture was centrifuged at 5000× g, washed with sterile PBS and suspended in a fresh 2 × concentrated TSB/+G. In the case of yeasts, the overnight culture of C. albicans in Sabouraud dextrose broth (SB) was used for inoculum preparation. Similar to above, 5 mL of 24 h culture was centrifuged, washed with PBS and then suspended in sterile 2 × concentrated RPMI-1640 medium (with L-glutamine, without sodium bicarbonate) supplemented with 2% glucose (RPMI-1640/+G). In both cases, the cell concentration of the inoculum was about 1 × 10^7 cells per ml.
For the determination of the inhibitory concentration that reduced biofilm development by 50% (BIC50^, expressed in µg/mL), 100 µL inoculum in 2 × concentrated RPMI-1640/+G medium (in the case of C. albicans) or 2 x concentrated TSB/+G broth (in the case of S. aureus) was transferred to each well of 96-well plates containing 100 µL of serially diluted in water tested compounds. The final concentrations of the compounds were the same as those used in MIC determination studies. The 96-well plates were then incubated for 24 h at 37 °C and 35 °C in the case of bacteria and fungi, respectively. Viability of the microorganisms in the presence of the tested compounds was analyzed by means of MTT assay.
The reduction in biofilm viability was analyzed by means of MTT assay. Briefly, 20 μL of MTT solution (5 mg/mL in PBS) was added to prewashed wells with exchanged medium (180 μL of fresh medium) wells containing bacterial/yeast biofilms. Plates were then incubated in the dark for the next 3 h at 37 °C. After that time, the medium was replaced with 6 mM HCl in isopropanol and, when the reduced MTT was fully dissolved, the plates were read at 570 nm. Activity against fully developed 24 h old biofilm was described as biofilm eradication concentration (BEC50 expressed in µg/mL), which corresponded to the concentration of the compound able to reduce 50% of biofilm viability compared with the growth control.

[7] = tested on: P. aeruginosa PCM 499; experiment: MIC, broth microdilution; assay type: cell-based, Pseudomonas aeruginosa; conditions: P. aeruginosa PCM 499, 24 h
Text: as §4, §5

[8] = tested on: C.krusei CCM 8271; experiment: MIC, broth microdilution; assay type: cell-based, Candida krusei; conditions: C.krusei CCM 8271, 24 h
Text: as §4, §5

| Compound | effect on cell viability (in words) ([1]; MTT) | IC50 ([1]; primary Fibroblasts, MTT) [mg/L] | IC50 ([2]; Keratinocytes (HaCaT), MTT) [mg/L] | effect on cell viability (in words) ([2]; MTT) | MIC100 [3] [mg/L] | MIC100 [4] [mg/L] | MIC100 [5] [mg/L] | BIC50 [6] [µg/mL] | MIC100 [7] [mg/L] | MIC100 [8] [mg/L] | IC50 [1] [mg/L] | IC50 [2] [mg/L] |
| --- | --- | --- | --- | --- | --- | --- | --- | --- | --- | --- | --- | --- |
| CC[C@H](C)[C@H](NC(=O)COCCOCCNC(=O)[C@H](Cc1c[nH]cn1)NC(=O)CCNC(=O)CCCCCN)C(=O)N[C@@H](CCCCN)C(=O)N[C@@H](CCCCN)C(=O)N[C@H](C(=O)N[C@@H](CC(C)C)C(=O)N[C@@H](CO)C(=O)N[C@@H](CCCCN)C(=O)N[C@H](C(=O)N[C@@H](CCCCN)C(=O)N[C@@H](CCCCN)C(=O)N[C@@H](CC(C)C)C(=O)N[C@@H](CC(C)C)C(N)=O)[C@@H](C)CC)[C@@H](C)CC [AHX-CAR-PEG-DK5] (H-[Ahx][βAla]H[AEEA]IKKILSKIKKLL-NH2) | neutral or even pro-proliferative | >50 | >50 | neutral or even pro-proliferative | >50 | 6.25 (≈ 3.31 µM) | >50 | >50 | >50 | >50 | – | – |
| CCCCCCCCCCCCCCCC(=O)NCCC(=O)N[C@@H](Cc1c[nH]cn1)C(=O)NCCOCCOCC(=O)N[C@H](C(=O)N[C@@H](CCCCN)C(=O)N[C@@H](CCCCN)C(=O)N[C@H](C(=O)N[C@@H](CC(C)C)C(=O)N[C@@H](CO)C(=O)N[C@@H](CCCCN)C(=O)N[C@H](C(=O)N[C@@H](CCCCN)C(=O)N[C@@H](CCCCN)C(=O)N[C@@H](CC(C)C)C(=O)N[C@@H](CC(C)C)C(N)=O)[C@@H](C)CC)[C@@H](C)CC)[C@@H](C)CC [C16-CAR-PEG-DK5] ({Palmitoyl-βAla}-H[AEEA]IKKILSKIKKLL-NH2) | – | 4 (≈ 1.98 µM) | 1 (≈ 0.496 µM) | – | >50 | 12.5 (≈ 6.2 µM) | >50 | 10 | >50 | 12.5 (≈ 6.2 µM) | – | – |
| CC[C@H](C)[C@H](NC(=O)COCCOCCNC(=O)[C@H](Cc1c[nH]cn1)NC(=O)CCN)C(=O)N[C@@H](CCCCN)C(=O)N[C@@H](CCCCN)C(=O)N[C@H](C(=O)N[C@@H](CC(C)C)C(=O)N[C@@H](CO)C(=O)N[C@@H](CCCCN)C(=O)N[C@H](C(=O)N[C@@H](CCCCN)C(=O)N[C@@H](CCCCN)C(=O)N[C@@H](CC(C)C)C(=O)N[C@@H](CC(C)C)C(N)=O)[C@@H](C)CC)[C@@H](C)CC [CAR-PEG-DK5] (H-[βAla]H[AEEA]IKKILSKIKKLL-NH2; N-terminus and C-terminus assumed) | – | – | – | – | >50 | 3.9 (≈ 2.19 µM) | >50 | >50 | 50 (≈ 28.1 µM) | 3.9 (≈ 2.19 µM) | 35 (≈ 19.7 µM) | >50 |
| CC[C@H](C)[C@H](NC(=O)CCCCCN)C(=O)N[C@@H](CCCCN)C(=O)N[C@@H](CCCCN)C(=O)N[C@H](C(=O)N[C@@H](CC(C)C)C(=O)N[C@@H](CO)C(=O)N[C@@H](CCCCN)C(=O)N[C@H](C(=O)N[C@@H](CCCCN)C(=O)N[C@@H](CCCCN)C(=O)N[C@@H](CC(C)C)C(=O)N[C@@H](CC(C)C)C(N)=O)[C@@H](C)CC)[C@@H](C)CC [AHX-DK5] (H-[Ahx]IKKILSKIKKLL-NH2) | moderately toxic | 50 (≈ 32.5 µM) | >50 | moderately toxic | 12.5 (≈ 8.13 µM) | 0.78 (≈ 0.507 µM) | >50 | 6.25 | 25 (≈ 16.3 µM) | 50 (≈ 32.5 µM) | – | – |
